Some results are limits rather than exact numbers.

Sequence of human activated kallikrein enzyme (P03952 391-638 limits assumed): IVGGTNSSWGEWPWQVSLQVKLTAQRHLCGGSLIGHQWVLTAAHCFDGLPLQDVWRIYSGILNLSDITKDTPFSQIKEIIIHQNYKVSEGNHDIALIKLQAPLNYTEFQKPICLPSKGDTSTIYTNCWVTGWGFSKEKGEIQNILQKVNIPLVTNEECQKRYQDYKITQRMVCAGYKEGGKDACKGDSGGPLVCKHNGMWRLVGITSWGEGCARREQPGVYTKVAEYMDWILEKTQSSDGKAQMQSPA
Sequence of human activated kallikrein enzyme (P03952 20-390 partner limits assumed): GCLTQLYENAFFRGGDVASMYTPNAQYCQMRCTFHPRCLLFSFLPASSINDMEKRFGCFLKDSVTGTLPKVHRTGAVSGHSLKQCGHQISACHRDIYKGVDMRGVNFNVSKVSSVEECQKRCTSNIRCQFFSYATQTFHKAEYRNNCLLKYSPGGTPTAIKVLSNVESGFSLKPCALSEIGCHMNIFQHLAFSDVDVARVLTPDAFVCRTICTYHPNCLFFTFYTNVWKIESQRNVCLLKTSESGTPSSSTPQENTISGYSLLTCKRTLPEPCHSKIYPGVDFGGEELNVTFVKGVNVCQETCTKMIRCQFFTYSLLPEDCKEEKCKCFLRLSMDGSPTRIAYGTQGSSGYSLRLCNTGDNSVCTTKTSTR

For this assay, the target named is human activated kallikrein enzyme (Homo sapiens, UniProt P03952). Nature of the assay: Inhibition of human activated plasma kallikrein, fluorogenic PFR-AMC substrate, 500 pM enzyme format. In kind it is biochemical. The note with it: 500 pM activated kallikrein; 300 μM PFR-AMC; 30 min preincubation; 10 min room temperature; pH 7.5; read-out: Primary Dose Response Assay: Average EC50. The method, boiled down:
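Using fluorogenic PFR-AMC at 300 μM, cleavage by 500 pM human activated kallikrein ran 10 min at room temperature, read at 460 nm emission (380 nm excitation). Enzyme and compounds were first preincubated 30 min in 20 mM Tris pH 7.5, 150 mM NaCl, 1 mM EDTA, 0.1% PEG-400, 0.1% Triton X-100.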
By EC50 is commonly meant the concentration giving half of the maximal effect. On to `Cc1cc2c(N)nccc2c(C)c1CNc1cc2c(cn1)c(F)cn2Cc1cc2cc(C3CC3)cnc2s1` [Example 286, 6-(((1-((5-cyclopropylthieno[2,3-b]pyridin-2-yl)methyl)-3-fluoro-1H-pyrrolo[3,2-c]pyridin-6-yl)amino)methyl)-5,7-dimethylisoquinolin-1-amine], for which the EC50 fell in the range of 0.001 to 0.01 µM.

For `COC(=O)C12CC1CN(C(=O)Cc1ccc(Cn3cc(C(=O)NCc4c(C)cc5c(N)nccc5c4C)cn3)cc1)C2` (stereo not drawn) [Example 217, methyl 3-(2-(4-((4-(((1-amino-5,7-dimethylisoquinolin-6-yl)methyl)carbamoyl)-1H-pyrazol-1-yl)methyl)pheny1)acetyl)-3-azabicyclo[3.1.0]hexane-1-carboxylate], the EC50 lay within 0.001 to 0.01 µM. As to `CNC(=O)Cc1ccc(Cn2cc(C(=O)NCc3c(C)cc4c(N)nccc4c3C)cn2)cc1` [Example 230, N-((1-amino-5,7-dimethylisoquinolin-6-y1)methy1)-1-(4-(2-(methylamino)-2-oxoethyl)benzyl)-1H-pyrazole-4-carboxamide], the EC50 was under 0.001 µM. As for `Cc1cc2c(N)nccc2c(C)c1CNC(=O)c1cnn(Cc2cccc(Cl)c2)c1` [Example 98, N-((1-amino-5,7-dimethylisoquinolin-6-yl)methyl)-1-(3-chlorobenzyl)-1H-pyrazole-4-carboxamide], the figure is 0.01 to 0.1 µM; as for `Cc1cc2c(N)nccc2c(C)c1CNC(=O)c1cnn(Cc2ccc(CC(=O)N3CCCCC3)cc2)c1` [Example 223, N-((1-amino-5,7-dimethylisoquinolin-6-yl)methyl)-1-(4-(2-oxo-2-(piperidin-1-yl)ethyl)benzyl)-1H-pyrazole-4-carboxamide], 0.001 to 0.01 µM; as for `Cc1cc2c(N)nccc2c(C)c1CNc1cc(NCc2ccc3ccccc3n2)ncn1` [Example 306, N^4-((1-amino-5,7-dimethylisoquinolin-6-yl)methyl)-N^6-(quinolin-2-ylmethyl)pyrimidine-4,6-diamine], 0.01 to 0.1 µM.

Consider `Cc1cc2c(N)nccc2c(C)c1CNC(=O)c1cnn(Cc2cn3cc(C4CC4)cc(Cc4nnco4)c3n2)c1` [Example 172, 1-((8-((1,3,4-oxadiazol-2-yl)methyl)-6-cyclopropylimidazo[1,2-a]pyridin-2-y1)methyl)-N-((1-amino-5,7-dimethylisoquinolin-6-y1)methyl)-1H-pyrazole-4-carboxamide], for which the EC50 was under 0.001 µM. `Cc1cc2c(N)nccc2c(C)c1CNC(=O)c1cnn(Cc2ccc(CC(=O)N3CC4CC4C3)nc2)c1` (stereo not drawn) [Example 90, 1-((6-(2-(3-azabicyclo[3.1.0]hexan-3-yl)-2-oxoethyl)pyridin-3-yl)methyl)-N-((1-amino-5,7-dimethylisoquinolin-6-yl)methyl)-1H-pyrazole-4-carboxamide]: the EC50 is under 0.001 µM. As for `Cc1cc2c(N)nccc2c(C)c1CNC(=O)c1nnc(Cc2cn3cc(C4CC4)ccc3n2)o1` [Example 190, N-((1-amino-5,7-dimethylisoquinolin-6-yl)methyl)-5-((6-cyclopropylimidazo[1,2-a]pyridin-2-yl)methyl)-1,3,4-oxadiazole-2-carboxamide], the figure is under 0.001 µM. The same measure for `Cc1cc2c(N)nccc2c(C)c1CNc1cc(OCc2ccc(CC(=O)N(C)C)cc2)cnn1` [Example I-465, 2-(4-(((6-(((1-amino-5,7-dimethylisoquinolin-6-yl)methyl)amino)pyridazin-4-yl)oxy)methyl)phenyl)-N,N-dimethylacetamide]: under 0.001 µM; for `Cc1cc2c(N)nccc2c(C)c1CNC(=O)c1cn(Cc2cn3cc(C4CC4)ccc3n2)nc1C(F)F` [Example 199, N-((1-amino-5,7-dimethylisoquinolin-6-y1)methyl)-1-((6-cyclopropylimidazo[1,2-a]pyridin-2-y1)methyl)-3-(difluoromethyl)-1H-pyrazole-4-carboxamide]: under 0.001 µM; for `Cc1cc2c(N)nccc2c(C)c1CNS(=O)(=O)c1cnn(Cc2cn3cc(C4CC4)ccc3n2)c1` [Example 490, N-((1-amino-5,7-dimethylisoquinolin-6-yl)methyl)-1-((6-cyclopropylimidazo[1,2-a]pyridin-2-yl)methyl)-1H-pyrazole-4-sulfonamide]: 0.01 to 0.1 µM.

With `Cc1cc2c(N)nccc2c(C)c1CNC(=O)c1cnn(Cc2cn3cc(C4CC4C)ccc3n2)c1` (stereo not drawn) [Example 178, N-((1-amino-5,7-dimethylisoquinolin-6-yl)methyl)-1-((6-(2-methylcyclopropyl)imidazo[1,2-a]pyridin-2-yl)methyl)-1H-pyrazole-4-carboxamide], the EC50 is under 0.001 µM. As for `Cc1ccc2nc(Cn3cc(C(=O)NCc4c(C)cc5c(NC(=O)OCc6ccccc6)nccc5c4C)cn3)cn2c1` [Example 7, benzyl (5,7-dimethyl-6-((1-((6-methylimidazo[1,2-a]pyridin-2-yl)methyl)-1H-pyrazole-4-carboxamido)methyl)isoquinolin-1-yl)carbamate], the figure is 0.01 to 0.1 µM; as for `Cc1cc2c(N)nccc2c(C)c1CNC(=O)c1cnn(Cc2ccc(CC(=O)N3CCC3)cc2)c1` [Example 219, N-((1-amino-5,7-dimethylisoquinolin-6-yl)methyl)-1-(4-(2-(azetidin-1-yl)-2-oxoethyl)benzyl)-1H-pyrazole-4-carboxamide], under 0.001 µM; as for `Cc1cc2c(N)nccc2c(C)c1CNc1cc(OCc2ccc(Cn3cccn3)nc2)cnn1` [Example 445, 6-(((5-((6-((1H-pyrazol-1-yl)methyl)pyridin-3-yl)methoxy)pyridazin-3-yl)amino)methyl)-5,7-dimethylisoquinolin-1-amine], 0.1 to 1 µM. As for `Cc1cc2c(N)nccc2c(C)c1CNC(=O)c1cnn(Cc2ccc(CC(=O)N3CC4CC(C4)C3)cc2)c1` [Example 215, 1-(4-(2-(3-azabicyclo[3.1.1]heptan-3-yl)-2-oxoethyl)benzyl)-N-((1-amino-5,7-dimethylisoquinolin-6-yl)methyl)-1H-pyrazole-4-carboxamide], the figure is 0.001 to 0.01 µM; as for `Cc1cc2c(N)nccc2c(C)c1CNC(=O)c1cnn(C(F)(F)c2ccccc2)c1` [Example I-472, N-((1-amino-5,7-dimethylisoquinolin-6-yl)methyl)-1-(difluoro(phenyl)methyl)-1H-pyrazole-4-carboxamide], 0.1 to 1 µM. As for `Cc1cc2c(N)nccc2c(C)c1CNC(=O)c1cnn(Cc2ccc(N3CCCC3)nc2)c1C(F)(F)F` [Example 193, N-((1-amino-5,7-dimethylisoquinolin-6-yl)methyl)-1-((6-(pyrrolidin-1-y1)pyridin-3-yl)methyl)-5-(trifluoromethyl)-1H-pyrazole-4-carboxamide], the figure is 0.1 to 1 µM. Take `Cc1cc2c(N)nccc2c(C)c1CNC(=O)c1cnn(Cc2ccc(Oc3cc(Cl)cn(C)c3=O)cc2)c1` [Example 17, N-((1-amino-5,7-dimethylisoquinolin-6-yl)methyl)-1-(4-((5-chloro-1-methyl-2-oxo-1,2-dihydropyridin-3-yl)oxy)benzyl)-1H-pyrazole-4-carboxamide]: the EC50 was under 0.001 µM. The same measure for `Cc1cc2c(N)nccc2c(C)c1CNC(=O)c1cnn(Cc2cn3c(C)c(Cl)ccc3n2)c1` [Example 106, N-((1-amino-5,7-dimethylisoquinolin-6-yl)methyl)-1-((6-chloro-5-methylimidazo[1,2-a]pyridin-2-yl)methyl)-1H-pyrazole-4-carboxamide]: under 0.001 µM.

For the origin of these results see patent US20260374754A1, “N-((ISOQUINOLIN-6-YL)METHYL)-1H-PYRAZOLE-4-CARBOXAMIDE DERIVATIVES AS PLASMA KALLIKREIN INHIBITORS FOR THE TREATMENT OF HEREDITARY ANGIODEMA” (Takeda Pharmaceutical Company Limited, priority 2022, published 2026).
